Legend:
[1] = tested on: human lung cancer strain NCI-H441; experiment: NCI-H441 cell proliferation inhibitory activity (CellTiter-Glo, 4 days); format: cell-based; conditions: 50% proliferation inhibitory concentration, four days, read-out: NCl-H441 IC50
In short: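 Signal came from […] measured per well once the reagent was added. Beforehand, cells were cultured at 37°C and 5% carbon dioxide on a compound series serially diluted in dimethyl sulfoxide.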

[2] = molecular target: GDP-bound NRAS wild-type protein (Homo sapiens, UniProt P01111); experiment: Binding to NRAS by surface plasmon resonance (SPR), KD and KD ratio to KRAS; conditions: ratio of KD with respect to GDP-bound NRAS wild-type protein to KD with respect to KRAS
Chain of GDP-bound NRAS wild-type protein (P01111 whole entry): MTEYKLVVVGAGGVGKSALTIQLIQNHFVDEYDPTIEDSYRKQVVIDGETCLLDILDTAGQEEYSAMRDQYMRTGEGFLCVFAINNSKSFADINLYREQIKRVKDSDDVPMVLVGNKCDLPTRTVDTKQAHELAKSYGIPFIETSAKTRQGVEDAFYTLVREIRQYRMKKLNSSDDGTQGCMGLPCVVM
In short: (§1)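 Measured at 30°C: SPR with GDP-loaded, E. coli-expressed biotin-Avi RAS captured (~100–300 RU), ascending 75 s compound injections, HBS pH 7.4 with GDP, MgCl2, 4% DMSO. KD from 1:1 fit.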

[3] = molecular target: GDP-bound KRAS wild-type protein (Homo sapiens, UniProt P01116); experiment: Binding to KRAS by surface plasmon resonance (SPR), dissociation constant KD; conditions: Single Cycle Kinetics, 1:1 binding model
Chain of GDP-bound KRAS wild-type protein (P01116 1-188 isoform P01116-2): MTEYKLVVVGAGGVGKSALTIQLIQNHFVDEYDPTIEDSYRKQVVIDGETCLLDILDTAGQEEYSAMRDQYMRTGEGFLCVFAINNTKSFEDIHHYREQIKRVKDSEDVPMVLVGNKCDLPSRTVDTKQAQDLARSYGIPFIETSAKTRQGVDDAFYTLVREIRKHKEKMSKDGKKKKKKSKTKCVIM
In short: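 Captured GDP-RAS (~100–300 RU) was exposed to increasing compound concentrations, 75 s per step, in running buffer with 10 µM GDP, 10 mM MgCl2 and 4% DMSO at pH 7.4.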

HRAS wild-type protein = HRAS wild-type protein (Homo sapiens, UniProt P01112); experiment: Binding to HRAS by surface plasmon resonance (SPR), KD and KD ratio to KRAS; conditions: ratio of KD with respect to HRAS wild-type protein to KD with respect to KRAS
Chain of HRAS wild-type protein (P01112 whole entry): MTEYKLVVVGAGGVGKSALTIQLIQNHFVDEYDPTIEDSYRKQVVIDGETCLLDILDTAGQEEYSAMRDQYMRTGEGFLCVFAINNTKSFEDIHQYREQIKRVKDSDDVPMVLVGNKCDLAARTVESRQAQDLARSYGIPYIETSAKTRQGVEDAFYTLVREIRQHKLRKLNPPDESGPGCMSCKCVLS
In short: as §1

Row | SMILES | IC50 [1] [nM] | NRAS /KRAS [2] | Kd [3] [nM] | HRAS /KRAS (HRAS wild-type protein)
1 | CC[C@H](C)[C@@H]1NC(=O)[C@H](CC(C)C)N(C)C(=O)C[C@@H](C(=O)N2CCOCC2)N(C)C(=O)[C@H](C2CCCC2)N(C)C(=O)C2(CCC2)NC(=O)[C@@H]2C[C@@H](OCC(C)C)CN2C(=O)[C@H](CCc2cc(F)c(C(F)(F)F)c(F)c2)NC(=O)CN(C)C(=O)[C@H](Cc2ccc(C(F)(F)F)cc2)N2CCCC[C@@H](C2=O)N(C)C(=O)CN(C)C1=O [PP1160] | 18.4 | B (a compound having 3 or more and less than 10 is denoted as B) | 0.032 | B (a compound having 3 or more and less than 10 is denoted as B)
2 | CCO[C@@H]1C[C@H]2C(=O)NC3(CCC3)C(=O)N(C)[C@@H](C3CCCC3)C(=O)N(C)[C@H](C(=O)N3CCOCC3)CC(=O)N(C)[C@@H](Cc3ccsc3)C(=O)N[C@@H]([C@@H](C)CC)C(=O)N(C)CC(=O)N(C)[C@H]3CCCCCN(C3=O)[C@@H](Cc3ccc(C(F)(F)F)cc3)C(=O)N(C)CC(=O)N[C@@H](CCc3cc(F)c(C(F)(F)F)c(F)c3)C(=O)N2C1 [PP1164] | 95.9 | B (a compound having 3 or more and less than 10 is denoted as B) | 0.52 | B (a compound having 3 or more and less than 10 is denoted as B)
3 | CCO[C@@H]1C[C@H]2C(=O)NC3(CCC3)C(=O)N(C)[C@@H](C3CCCC3)C(=O)N(C)[C@H](C(=O)N(C)C)CC(=O)N(C)[C@@H](Cc3cccs3)C(=O)N[C@@H]([C@@H](C)CC)C(=O)N(C)CC(=O)N(C)[C@H]3CCCCCN(C3=O)[C@@H](Cc3ccc(C(F)(F)F)cc3)C(=O)N(C)CC(=O)N[C@@H](CCc3cc(F)c(C(F)(F)F)c(F)c3)C(=O)N2C1 [PP1169] | 74 | B (a compound having 3 or more and less than 10 is denoted as B) | 0.32 | B (a compound having 3 or more and less than 10 is denoted as B)
4 | CCO[C@@H]1C[C@H]2C(=O)NC3(CCC3)C(=O)N(C)[C@@H](C3CCCC3)C(=O)N(C)[C@H](C(=O)N(C)C)CC(=O)N(C)[C@@H](Cc3ccccc3C#N)C(=O)N[C@@H]([C@@H](C)CC)C(=O)N(C)CC(=O)N(C)[C@H]3CCCCCN(C3=O)[C@@H](Cc3ccc(C(F)(F)F)cc3)C(=O)N(C)CC(=O)N[C@@H](CCc3cc(F)c(C(F)(F)F)c(F)c3)C(=O)N2C1 [PP1171] | 118 | B (a compound having 3 or more and less than 10 is denoted as B) | 0.69 | B (a compound having 3 or more and less than 10 is denoted as B)
5 | CCO[C@@H]1C[C@H]2C(=O)NC3(CCC3)C(=O)N(C)[C@@H](C3CCCC3)C(=O)N(C)[C@H](C(=O)N(C)C)CC(=O)N(C)[C@@H](Cc3cccc(C#N)c3)C(=O)N[C@@H]([C@@H](C)CC)C(=O)N(C)CC(=O)N(C)[C@H]3CCCCCN(C3=O)[C@@H](Cc3ccc(C(F)(F)F)cc3)C(=O)N(C)CC(=O)N[C@@H](CCc3cc(F)c(C(F)(F)F)c(F)c3)C(=O)N2C1 [PP1172] | 48.3 | B (a compound having 3 or more and less than 10 is denoted as B) | 0.17 | B (a compound having 3 or more and less than 10 is denoted as B)
6 | CCO[C@@H]1C[C@H]2C(=O)NC3(CCC3)C(=O)N(C)[C@@H](C3CCCC3)C(=O)N(C)[C@H](C(=O)N(C)C)CC(=O)N(C)[C@@H](Cc3ccc(C#N)cc3)C(=O)N[C@@H]([C@@H](C)CC)C(=O)N(C)CC(=O)N(C)[C@H]3CCCCCN(C3=O)[C@@H](Cc3ccc(C(F)(F)F)cc3)C(=O)N(C)CC(=O)N[C@@H](CCc3cc(F)c(C(F)(F)F)c(F)c3)C(=O)N2C1 [PP1173] | 70.8 | B (a compound having 3 or more and less than 10 is denoted as B) | 0.18 | B (a compound having 3 or more and less than 10 is denoted as B)
7 | CCO[C@@H]1C[C@H]2C(=O)NC3(CCC3)C(=O)N(C)[C@@H](C3CCCC3)C(=O)N(C)[C@H](C(=O)N(C)C)CC(=O)N(C)[C@@H](Cc3ccc(Cl)c(Cl)c3)C(=O)N[C@@H]([C@@H](C)CC)C(=O)N(C)CC(=O)N(C)[C@H]3CCCCCN(C3=O)[C@@H](Cc3ccc(C(F)(F)F)cc3)C(=O)N(C)CC(=O)N[C@@H](CCc3cc(F)c(C(F)(F)F)c(F)c3)C(=O)N2C1 [PP1174] | 85.2 | B (a compound having 3 or more and less than 10 is denoted as B) | 1 | B (a compound having 3 or more and less than 10 is denoted as B)
8 | CCO[C@@H]1C[C@H]2C(=O)NC3(CCC3)C(=O)N(C)[C@@H](C3CCCC3)C(=O)N(C)[C@H](C(=O)N3CCOCC3)CC(=O)N(C)[C@@H](C)C(=O)N[C@@H]([C@@H](C)CC)C(=O)N(C)CC(=O)N(C)[C@H]3CCCCCN(C3=O)[C@@H](Cc3ccc(F)cc3)C(=O)N(C)CC(=O)N[C@@H](CCc3cc(F)c(C(F)(F)F)c(F)c3)C(=O)N2C1 [PP1175] | 23.5 | B (a compound having 3 or more and less than 10 is denoted as B) | 0.16 | B (a compound having 3 or more and less than 10 is denoted as B)
9 | CCO[C@@H]1C[C@H]2C(=O)NC3(CCC3)C(=O)N(C)[C@@H](C3CCCC3)C(=O)N(C)[C@H](C(=O)N3CCOCC3)CC(=O)N(C)[C@@H](CC(F)F)C(=O)N[C@@H]([C@@H](C)CC)C(=O)N(C)CC(=O)N(C)[C@H]3CCCCCN(C3=O)[C@@H](Cc3ccc(F)cc3)C(=O)N(C)CC(=O)N[C@@H](CCc3cc(F)c(C(F)(F)F)c(F)c3)C(=O)N2C1 [PP1177] | 32.5 | B (a compound having 3 or more and less than 10 is denoted as B) | 0.081 | B (a compound having 3 or more and less than 10 is denoted as B)
10 | CCO[C@@H]1C[C@H]2C(=O)NC3(CCC3)C(=O)N(C)[C@@H](C3CCCC3)C(=O)N(C)[C@H](C(=O)N3CCOCC3)CC(=O)N(C)[C@@H](CC3CC3)C(=O)N[C@@H]([C@@H](C)CC)C(=O)N(C)CC(=O)N(C)[C@H]3CCCCCN(C3=O)[C@@H](Cc3ccc(F)cc3)C(=O)N(C)CC(=O)N[C@@H](CCc3cc(F)c(C(F)(F)F)c(F)c3)C(=O)N2C1 [PP1178] | 26.3 | B (a compound having 3 or more and less than 10 is denoted as B) | 0.16 | B (a compound having 3 or more and less than 10 is denoted as B)
11 | CCO[C@@H]1C[C@H]2C(=O)NC3(CCC3)C(=O)N(C)[C@@H](C3CCCC3)C(=O)N(C)[C@H](C(=O)N3CCOCC3)CC(=O)N(C)[C@@H](Cc3cccs3)C(=O)N[C@@H]([C@@H](C)CC)C(=O)N(C)CC(=O)N(C)[C@H]3CCCCCN(C3=O)[C@@H](Cc3ccc(F)cc3)C(=O)N(C)CC(=O)N[C@@H](CCc3cc(F)c(C(F)(F)F)c(F)c3)C(=O)N2C1 [PP1183] | 27.8 | B (a compound having 3 or more and less than 10 is denoted as B) | 0.26 | B (a compound having 3 or more and less than 10 is denoted as B)
12 | CCO[C@@H]1C[C@H]2C(=O)NC3(CCC3)C(=O)N(C)[C@@H](C3CCCC3)C(=O)N(C)[C@H](C(=O)N3CCOCC3)CC(=O)N(C)[C@@H](Cc3ccsc3)C(=O)N[C@@H]([C@@H](C)CC)C(=O)N(C)CC(=O)N(C)[C@H]3CCCCCN(C3=O)[C@@H](Cc3ccc(F)cc3)C(=O)N(C)CC(=O)N[C@@H](CCc3cc(F)c(C(F)(F)F)c(F)c3)C(=O)N2C1 [PP1184] | 91.9 | B (a compound having 3 or more and less than 10 is denoted as B) | 0.16 | B (a compound having 3 or more and less than 10 is denoted as B)
13 | CCO[C@@H]1C[C@H]2C(=O)NC3(CCC3)C(=O)N(C)[C@@H](C3CCCC3)C(=O)N(C)[C@H](C(=O)N3CCOCC3)CC(=O)N(C)[C@@H](Cc3ccccc3C#N)C(=O)N[C@@H]([C@@H](C)CC)C(=O)N(C)CC(=O)N(C)[C@H]3CCCCCN(C3=O)[C@@H](Cc3ccc(F)cc3)C(=O)N(C)CC(=O)N[C@@H](CCc3cc(F)c(C(F)(F)F)c(F)c3)C(=O)N2C1 [PP1185] | 175 | B (a compound having 3 or more and less than 10 is denoted as B) | 0.5 | B (a compound having 3 or more and less than 10 is denoted as B)
14 | CCO[C@@H]1C[C@H]2C(=O)NC3(CCC3)C(=O)N(C)[C@@H](C3CCCC3)C(=O)N(C)[C@H](C(=O)N3CCOCC3)CC(=O)N(C)[C@@H](Cc3ccc(C#N)cc3)C(=O)N[C@@H]([C@@H](C)CC)C(=O)N(C)CC(=O)N(C)[C@H]3CCCCCN(C3=O)[C@@H](Cc3ccc(F)cc3)C(=O)N(C)CC(=O)N[C@@H](CCc3cc(F)c(C(F)(F)F)c(F)c3)C(=O)N2C1 [PP1187] | 52.3 | B (a compound having 3 or more and less than 10 is denoted as B) | 0.12 | B (a compound having 3 or more and less than 10 is denoted as B)

From EP4603105A1, “PHARMACEUTICAL COMPOSITION CONTAINING CYCLIC COMPOUND HAVING SELECTIVE KRAS INHIBITORY EFFECT AGAINST HRAS AND NRAS” (CHUGAI SEIYAKU KABUSHIKI KAISHA, priority 2022, dated 2024)
